Laboratory results: US11807644B2 (PMV Pharmaceuticals, Inc., priority 2020, dated 2023)

Each compound was assayed against T1, recombinant His-tag Y220C p53 DBD protein (Homo sapiens, UniProt P04637, Y220C) (assay: In vitro DNA binding activity assay (TR-FRET): binding of His-tag Y220C p53 DBD to biotin-labeled consensus DNA). Settings: SC150 = concentration to increase DNA binding by […], His-tag Y220C p53 DBD, biotin-labeled consensus DNA.
T1 construct: recombinant His-tag Y220C p53 DBD protein (amino acids #˜94-312)
Format: biochemical

SMILES | Y220C SC150 (μM)
Cn1ccc(C(=O)NCc2nc(-c3cc4c(N[C@@H]5CCN(C(C)(C)C)C[C@@H]5F)cccc4n3CC(F)(F)F)no2)c1 [Compound 397B, N-{[3-(4-{[(3S,4R)-1-tert-butyl-3-fluoropiperidin-4-yl]amino}-1-(2,2,2-trifluoroethyl)-1H-indol-2-yl)-1,2,4-oxadiazol-5-yl]methyl}-1-methyl-1H-pyrrole-3-carboxamide] | * (* = 0 μM ≤ SC150 < 0.1 μM)
CN(Cc1nc(-c2cc3c(N[C@@H]4CCNC[C@@H]4F)cccc3n2CC(F)(F)F)no1)c1cn[nH]c1 (racemic) [Compound 191B, (+/−)-N-[(3R,4S)-3-fluoropiperidin-4-yl]-2-(5-{[methyl(1H-pyrazol-4-yl)amino]methyl}-1,2,4-oxadiazol-3-yl)-1-(2,2,2-trifluoroethyl)-1H-indol-4-amine] | ** (** = 0.1 μM ≤ SC150 < 0.5 μM)
CN1CC[C@@H](Nc2cccc3c2cc(-c2noc(CNC(=O)c4ccn(C(C)(C)CF)n4)n2)n3CC(F)(F)F)[C@@H](F)C1 [Compound 548B, N-{[3-(4-{[(3S,4R)-3-fluoro-1-methylpiperidin-4-yl]amino}-1-(2,2,2-trifluoroethyl)-1H-indol-2-yl)-1,2,4-oxadiazol-5-yl]methyl}-1-(1-fluoro-2-methylpropan-2-yl)-1H-pyrazole-3-carboxamide] | * (* = 0 μM ≤ SC150 < 0.1 μM)
COCC1(n2ccc(C(=O)NCc3nc(-c4cc5c(N[C@H]6CCOC[C@H]6F)cccc5n4CC(F)(F)F)no3)c2)CC1 [Compound 496B, N-{[3-(4-{[(3S,4S)-3-fluorooxan-4-yl]amino}-1-(2,2,2-trifluoroethyl)-1H-indol-2-yl)-1,2,4-oxadiazol-5-yl]methyl}-1-[1-(methoxymethyl)cyclopropyl]-1H-pyrrole-3-carboxamide] | * (* = 0 μM ≤ SC150 < 0.1 μM)
CN1CC[C@@H](Nc2cccc3c2cc(-c2noc(CNC(=O)c4ccc(N(C)C)nc4)n2)n3CC(F)(F)F)[C@@H](F)C1 [Compound 557B, 6-(dimethylamino)-N-{[3-(4-{[(3S,4R)-3-fluoro-1-methylpiperidin-4-yl]amino}-1-(2,2,2-trifluoroethyl)-1H-indol-2-yl)-1,2,4-oxadiazol-5-yl]methyl}pyridine-3-carboxamide] | * (* = 0 μM ≤ SC150 < 0.1 μM)
CN1CC[C@@H](Nc2cccc3c2cc(-c2noc(CNC(=O)c4ccc5cc[nH]c5c4)n2)n3CC(F)(F)F)[C@@H](F)C1 [Compound 267B, N-{[3-(4-{[(3S,4R)-3-fluoro-1-methylpiperidin-4-yl]amino}-1-(2,2,2-trifluoroethyl)-1H-indol-2-yl)-1,2,4-oxadiazol-5-yl]methyl}-1H-indole-6-carboxamide] | * (* = 0 μM ≤ SC150 < 0.1 μM)
CCCC(=O)NCc1nnc(-c2cc3c(NC4CCN(C)CC4)cccc3n2CC(F)(F)F)s1 [Compound 65B, N-[(5-{4-[(1-methylpiperidin-4-yl)amino]-1-(2,2,2-trifluoroethyl)-1H-indol-2-yl}-1,3,4-thiadiazol-2-yl)methyl]butanamide] | ** (** = 0.1 μM ≤ SC150 < 0.5 μM)
COCC1(n2ccc(C(=O)NCc3nc(-c4cc5c(N[C@@H]6CCNC[C@@H]6F)cccc5n4CC(F)(F)F)no3)c2)CC1 [Compound 475B, N-{[3-(4-{[(3S,4R)-3-fluoropiperidin-4-yl]amino}-1-(2,2,2-trifluoroethyl)-1H-indol-2-yl)-1,2,4-oxadiazol-5-yl]methyl}-1-[1-(methoxymethyl)cyclopropyl]-1H-pyrrole-3-carboxamide] | * (* = 0 μM ≤ SC150 < 0.1 μM)
CN1CC[C@@H](Nc2cccc3c2cc(-c2noc(CNC(=O)c4cc(C(C)(C)C)on4)n2)n3CC(F)(F)F)[C@@H](F)C1 [Compound 543B, 5-tert-butyl-N-{[3-(4-{[(3S,4R)-3-fluoro-1-methylpiperidin-4-yl]amino}-1-(2,2,2-trifluoroethyl)-1H-indol-2-yl)-1,2,4-oxadiazol-5-yl]methyl}-1,2-oxazole-3-carboxamide] | * (* = 0 μM ≤ SC150 < 0.1 μM)
CC[C@@H]1C[C@H]1C(=O)NCc1nc(-c2cc3c(N[C@@H]4CCN(C)C[C@@H]4F)cccc3n2CC(F)(F)F)no1 [Compound 269B, (1R,2R)-2-ethyl-N-{[3-(4-{[(3S,4R)-3-fluoro-1-methylpiperidin-4-yl]amino}-1-(2,2,2-trifluoroethyl)-1H-indol-2-yl)-1,2,4-oxadiazol-5-yl]methyl}cyclopropane-1-carboxamide] | * (* = 0 μM ≤ SC150 < 0.1 μM)
CN1CCC(Nc2cccc3c2cc(-c2ccc(CNc4ccc(S(C)(=O)=O)cc4)s2)n3CC(F)(F)F)CC1 [Compound 100B, 2-(5-{[(4-methanesulfonylphenyl)amino]methyl}thiophen-2-yl)-N-(1-methylpiperidin-4-yl)-1-(2,2,2-trifluoroethyl)-1H-indol-4-amine] | ** (** = 0.1 μM ≤ SC150 < 0.5 μM)
CN1CC[C@@H](Nc2cccc3c2cc(-c2noc(CNC(=O)c4cnn(C5(C)CC5)c4)n2)n3CC(F)(F)F)[C@@H](F)C1 [Compound 448B, N-{[3-(4-{[(3S,4R)-3-fluoro-1-methylpiperidin-4-yl]amino}-1-(2,2,2-trifluoroethyl)-1H-indol-2-yl)-1,2,4-oxadiazol-5-yl]methyl}-1-(1-methylcyclopropyl)-1H-pyrazole-4-carboxamide] | * (* = 0 μM ≤ SC150 < 0.1 μM)
COCCN(C)c1nc(C(=O)NCc2nc(-c3cc4c(N[C@@H]5CCN(C)C[C@@H]5F)cccc4n3CC(F)(F)F)no2)cs1 [Compound 536B, N-{[3-(4-{1[(3S,4R)-3-fluoro-1-methylpiperidin-4-yl]amino}-1-(2,2,2-trifluoroethyl)-1H-indol-2-yl)-1,2,4-oxadiazol-5-yl]methyl}-2-[(2-methoxyethyl)(methyl)amino]-1,3-thiazole-4-carboxamide] | * (* = 0 μM ≤ SC150 < 0.1 μM)
CN1CC[C@@H](Nc2cccc3c2cc(-c2noc(C(=O)NCc4cnn(C)c4)n2)n3CC(F)(F)F)[C@@H](F)C1 [Compound 546B, 3-(4-{[(3S,4R)-3-fluoro-1-methylpiperidin-4-yl]amino}-1-(2,2,2-trifluoroethyl)-1H-indol-2-yl)-N-[(1-methyl-1H-pyrazol-4-yl)methyl]-1,2,4-oxadiazole-5-carboxamide] | ** (** = 0.1 μM ≤ SC150 < 0.5 μM)
CN1CC[C@@H](Nc2cccc3c2cc(-c2noc(CNC(=O)c4ccn([C@H]5CC[C@](C)(O)C5)c4)n2)n3CC(F)(F)F)[C@@H](F)C1 (stereo in doubt) [Compound 373B, Trans-N-{[3-(4-{[(3S,4R)-3-fluoro-1-methylpiperidin-4-yl]amino}-1-(2,2,2-trifluoroethyl)-1H-indol-2-yl)-1,2,4-oxadiazol-5-yl]methyl}-1-[(1R,3R)-3-hydroxy-3-methylcyclopentyl]-1H-pyrrole-3-carboxamide] | * (* = 0 μM ≤ SC150 < 0.1 μM)
COCCN1CC[C@@H](Nc2cccc3c2cc(-c2noc(CNC(=O)c4cnn(C(C)(C)C)c4)n2)n3CC(F)(F)F)[C@@H](F)C1 [Compound 338B, 1-tert-butyl-N-{[3-(4-{[(3S,4R)-3-fluoro-1-(2-methoxyethyl)piperidin-4-yl]amino}-1-(2,2,2-trifluoroethyl)-1H-indol-2-yl)-1,2,4-oxadiazol-5-yl]methyl}-1H-pyrazole-4-carboxamide] | * (* = 0 μM ≤ SC150 < 0.1 μM)
CN1CCC(Nc2cccc3c2cc(-c2noc(CNC(=O)c4ccc(Cl)cc4)n2)n3CC(F)(F)F)CC1 [Compound 148B, 4-chloro-N-[(3-{4-[(1-methylpiperidin-4-yl)amino]-1-(2,2,2-trifluoroethyl)-1H-indol-2-yl}-1,2,4-oxadiazol-5-yl)methyl]benzamide] | * (* = 0 μM ≤ SC150 < 0.1 μM)
CN1CC[C@@H](Nc2cccc3c2cc(-c2noc(C(=O)NCc4ccccc4)n2)n3CC(F)(F)F)[C@@H](F)C1 [Compound 544B, N-benzyl-3-(4-{[(3S,4R)-3-fluoro-1-methylpiperidin-4-yl]amino}-1-(2,2,2-trifluoroethyl)-1H-indol-2-yl)-1,2,4-oxadiazole-5-carboxamide] | ** (** = 0.1 μM ≤ SC150 < 0.5 μM)
Cc1c[nH]c2ccc(C(=O)NCc3nc(-c4cc5c(N[C@@H]6CCN(C)C[C@@H]6F)cccc5n4CC(F)(F)F)no3)cc12 [Compound 266B, N-{[3-(4-{[(3S,4R)-3-fluoro-1-methylpiperidin-4-yl]amino}-1-(2,2,2-trifluoroethyl)-1H-indol-2-yl)-1,2,4-oxadiazol-5-yl]methyl}-3-methyl-1H-indole-5-carboxamide] | * (* = 0 μM ≤ SC150 < 0.1 μM)
CN1CC[C@@H](Nc2cccc3c2cc(-c2noc(CNC(=O)c4csc(C5(CO)CC5)c4)n2)n3CC(F)(F)F)[C@@H](F)C1 [Compound 487B, N-{[3-(4-{[(3S,4R)-3-fluoro-1-methylpiperidin-4-yl]amino}-1-(2,2,2-trifluoroethyl)-1H-indol-2-yl)-1,2,4-oxadiazol-5-yl]methyl}-5-[1-(hydroxymethyl)cyclopropyl]thiophene-3-carboxamide] | * (* = 0 μM ≤ SC150 < 0.1 μM)
CN1CC[C@@H](Nc2cccc3c2cc(-c2noc(CNC(=O)c4cn(C(C)(C)CF)cn4)n2)n3CC(F)(F)F)[C@@H](F)C1 [Compound 342B, N-{[3-(4-{[(3S,4R)-3-fluoro-1-methylpiperidin-4-yl]amino}-1-(2,2,2-trifluoroethyl)-1H-indol-2-yl)-1,2,4-oxadiazol-5-yl]methyl}-1-(1-fluoro-2-methylpropan-2-yl)-1H-imidazole-4-carboxamide] | * (* = 0 μM ≤ SC150 < 0.1 μM)
CN1CCC(Nc2cccc3c2cc(-c2nnc(CNC(=O)Cc4ccccc4)s2)n3CC(F)(F)F)CC1 [Compound 59B, N-[(5-{4-[(1-methylpiperidin-4-yl)amino]-1-(2,2,2-trifluoroethyl)-1H-indol-2-yl}-1,3,4-thiadiazol-2-yl)methyl]-2-phenylacetamide] | ** (** = 0.1 μM ≤ SC150 < 0.5 μM)
